The source of these data is patent US20110045001A1, “Transfection results of non-viral gene delivery systems by influencing of the innate immune system” (Biontex Laboratories GmbH, priority 2008, published 2011).

Data set [1] concerns HeLa-Luc cells. The experiment in a line: Luciferase assay after siRNA transfection in the presence of TLR7/8 agonists (Example 9). The following applies: imiquimod 0.25 μg/ml final concentration (row A, column 1) + anti-luciferase-siRNA/Metafectene Pro; 48 hours. Type of data set: cell-based, human. On the procedure:
(§1) The cells are to be plated out at a cell count of 2×10^4 cells/cm^2 per well of 250 μl of complete medium.
(§2) First of all, the first 5 wells of the first three rows of a 48-well plate are each filled with 30 μl of PBS.
(§3) The stock solution of anti-luciferase-siRNA and the non-specific-control-siRNA is adjusted to a concentration of 1 pmol/10 μl with PBS. Then 10 μl of the working solution of the anti-luciferase-siRNA are pipetted into each of the first three wells of the first three rows of the 48-well plate. 10 μl of the working solution of the non-specific-control-siRNA are pipetted into each fourth well.
(§4) The Metafectene Pro reagent is diluted 1:300 with PBS. 20 μl of that dilution are introduced into each well containing siRNA.
(§5) The lipoplexes are then incubated for 20 minutes at room temperature. Then 250 μl of cell suspension are added to each well.
Two different agonists are added to the first 2 columns of the two 48-well plates, with three different working concentrations of the agonists being used. The agonists are in lyophilised form. They are dissolved with endotoxin-free water to form stock solutions having the concentration 100 μg/ml. The stock solutions are each diluted 1:10 with water to give working solutions.
Of the imiquimod working solution, 0.78 μl (=0.25 μg/ml final concentration) are pipetted into A1, 15.5 μl (=5 μg/ml) into A2 and 31 μl (=10 μg/ml) into A3. […]

The test system of data set [2] is HeLa-Luc cells. Briefly: Vitality determination with trypan blue after siRNA transfection in the presence of TLR7/8 agonists (Example 9). The following applies: 48 hours. As for the experimental part: as §1, §2, §3, §4, §5
Two different agonists are added to the first 2 columns of the two 48-well plates, with three different working concentrations of the agonists being used. The agonists are in lyophilised form. They are dissolved with endotoxin-free water to form stock solutions having the concentration 100 μg/ml. The stock solutions are each diluted 1:10 with water to give working solutions. […]
After the addition of the agonists, the two 48-well plates are incubated in a CO2 incubator for 48 hours.
After an incubation period of 48 hours, the cells of a plate are trypsinised and, using a Neubauer counting chamber, vitality measurement is carried out for each well with trypan blue.

Data set [3] relates to HeLa-Luc cells. The experiment in a line: Luciferase assay after anti-luciferase-siRNA transfection in the presence of kinase inhibitors (Example 8). As to conditions: anti-luciferase-siRNA 1 pMol/well, Metafectene Pro.
For data set [4], the system named is HeLa cells. The following applies: transfection repeated on 3rd day, pre-incubation 2 hours, development time 10 min. On the procedure: 1st day: HeLa cells are sown in a 48-well plate, the cells being plated out at a cell count of 0.8*10^5 cells per well of 250 μl of complete medium (10% FCS). […] 1 mg of inhibitor is dissolved in 100 μl of DMSO (stock solution). Dilution is then carried out with PBS 1:20 (working solution). […] The lipoplexes are then prepared. […] The two solutions are then mixed and incubated for 15 min. Finally, 50 μl of the lipoplex solution are added to each well. […] Analogous to Example 1 (with half amounts)

Data set [5] concerns HeLa cells. Briefly: β-Galactosidase reporter gene assay after single or repetitive transfection with antagonist (Example 4). In kind it is cell-based, human. The following applies: development time 10 min; for β-Galactosidase assay absorption, average value of duplicates 1&2/2: single transfection. On the procedure:
1st day: Analogous to Example 3.
The antagonist is adjusted to a concentration of 0.025 μg/μl with PBS.
The lipoplexes are then prepared.
Analogously to Example 3.
Analogous to Example 1 (with half amounts)
A general note: A reporter such as luciferase makes a cellular process visible.

Setting [6] is: repetitive transfection, antagonist 0.0625 μg per well.
Where [7] appears, read: repetitive transfection, antagonist 0.125 μg per well.
[8] abbreviates: repetitive transfection, antagonist 0.250 μg per well.
The mark [9] stands for this setting: repetitive transfection, antagonist 0.375 μg per well.
[10] abbreviates: repetitive transfection, antagonist 0.75 μg per well.

“And” between values parts separate entries of the source, which are not always exact repeats. Equal values may be shown once. Read-outs that look alike come from different tables or passages of the source.

On to `CC(C)Cn1cnc2c(N)nc3ccccc3c21` [Imiquimod, 1-(2-methylpropyl)-1H-imidazo[4,5-c]quinoline-4-amine], for which the “Luciferase assay, average value of 3×3 measurements” value (from here on “Luciferase assay, average value”) in data set [1] stood at 676 RLU/μl cell extract/sec. For the same molecule, the results for the “Vitality (trypan blue staining)” value in data set [2] (Imiquimod 0.5 μg/ml + anti-luciferase-siRNA/Metafectene Pro), in data set [2] (Imiquimod 5 μg/ml + anti-luciferase-siRNA/Metafectene Pro) and in data set [2] (Imiquimod 10 μg/ml + anti-luciferase-siRNA/Metafectene Pro) were 98.6%, 88.7% and 88.6%, respectively.
Regarding `C[S+]([O-])c1ccc(-c2nc(-c3ccncc3)c(-c3ccc(F)cc3)[nH]2)cc1` (stereo not shown) [SB203580], the “Luciferase assay, average value” value in data set [3] (single transfection, SB203580 5 μM) was 693 RLU/μl ell extract/sec; in data set [3] (single transfection, SB203580 10 μM), 747 RLU/μl ell extract/sec; in data set [3] (single transfection, SB203580 20 μM) it was 630 RLU/μl ell extract/sec; in data set [3] (single transfection, SB203580 30 μM), 671 RLU/μl ell extract/sec; in data set [3] (single transfection, SB203580 40 μM) it was 669 RLU/μl ell extract/sec; in data set [3] (transfection repeated on 3rd day, SB203580 5 μM), 696 RLU/μl ell extract/sec. Moreover, the “Luciferase assay, average value” value is listed as 656 RLU/μl ell extract/sec in data set [3] (transfection repeated on 3rd day, SB203580 10 μM); 617 RLU/μl ell extract/sec in data set [3] (transfection repeated on 3rd day, SB203580 20 μM); 587 RLU/μl ell extract/sec in data set [3] (transfection repeated on 3rd day, SB203580 30 μM); 610 RLU/μl ell extract/sec in data set [3] (transfection repeated on 3rd day, SB203580 40 μM).
Take `N#CC(=C(/N)Sc1ccccc1N)/C(C#N)=C(/N)Sc1ccccc1N` [U0126, 1,4-diamino-2,3-dicyano-1,4-bis(o-aminophenylmercapto)butadiene]: the “β-Galactosidase assay absorption, average value of 3 measurements” value in data set [4] (inhibitor 5 μM (well E)) came out at 0.72; in data set [4] (inhibitor 10 μM (well D)), 0.92; in data set [4] (inhibitor 25 μM (well C)) it was 0.79; in data set [4] (inhibitor 50 μM (well B)), 0.90; in data set [4] (inhibitor 75 μM (well A)), 0.97. Moreover, the “Luciferase assay, average value” value in data set [3] (single transfection, U0126 75 μM) was determined as 260 RLU/μl ell extract/sec.
On to “Human Interleukin-1 Receptor Antagonist (IL1-ra Human): Human interleukin-1 receptor antagonist, Biomol, Cat. No. 54592”, for which the “β-Galactosidase assay absorption, average value of 3 measurements” value in data set [5] (setting [6]) was 0.791 and 1.021; in data set [5] (setting [7]) it was 0.856 and 1.185; in data set [5] (setting [8]) it was 1.035 and 1.026; in data set [5] (setting [9]), 1.076 and 1.081; in data set [5] (setting [10]), 1.161 and 1.207; in data set [5] (single transfection (columns 1, 2), antagonist 0.0625 μg per well, pre-incubation 7 hours), 0.427 and 0.448. The “β-Galactosidase assay absorption, average value of 3 measurements” value in data set [5] (single transfection (columns 1, 2), antagonist 0.125 μg per well, pre-incubation 7 hours) was 0.415 and 0.435; in data set [5] (single transfection (columns 1, 2), antagonist 0.250 μg per well, pre-incubation 7 hours), 0.393 and 0.439; in data set [5] (single transfection (columns 1, 2), antagonist 0.375 μg per well, pre-incubation 7 hours) it was 0.392 and 0.460; in data set [5] (single transfection (columns 1, 2), antagonist 0.75 μg per well, pre-incubation 7 hours) it was 0.443 and 0.455. The “β-Galactosidase assay absorption, average value of duplicates 3&4/2” value in data set [5] (setting [6]) is reported as 0.906; in data set [5] (setting [7]) it was 1.020; in data set [5] (setting [8]) it was 1.030; in data set [5] (setting [9]), 1.078; in data set [5] (setting [10]), 1.184. In addition, the “β-Galactosidase assay absorption, average value of duplicates 1&2/2” value in data set [5] (antagonist 0.0625 μg per well) is reported as 0.437; in data set [5] (antagonist 0.125 μg per well), 0.425; in data set [5] (antagonist 0.250 μg per well), 0.416; in data set [5] (antagonist 0.375 μg per well), 0.426; in data set [5] (antagonist 0.75 μg per well) it was 0.449.
